Data taken from patent EP0650958A1, “Hydrazones of indane-triones and their application in therapy” (LABORATOIRE INNOTHERA Société Anonyme, priority 1993, dated 1995).
Structures can show the parent of a compound that is named as a salt.

Assays:
[1] = test system: hyperperméabilité vasculaire induite par le zymosan; assay: Vascular hyperpermeability induced by zymosan (extravasation of albumin or Evans blue); type: in vivo; conditions: oral administration of 1-20 mg/kg
From the text: (§1) Pour l'étude in vivo, ils sont administrés par voie intra-veineuse sous forme de solution aqueuse pure, par voie intrapéritonéale sous forme de solution aqueuse contenant ou non du DMSO ou par voie orale en solution ou en suspension dans la carboxyméthylcellulose ou dans une solution aqueuse composée contenant du Tween^(R) et dans certains cas du DMSO (diméthylsulfoxyde).
La perméabilité vasculaire est étudiée in vivo et in vitro par la mesure de l'extravasation d'albumine ou de colorant liant l'albumine (Bleu Evans). In vivo, l'hyperperméabilité est induite par l'injection d'une solution d'histamine, de bradykinine ou de zymosan. Les modèles in vitro permettent de réaliser des hyperpressions (sur un territoire vasculaire isolé) et/ou des réactions vasculaires inflammatoires.
A titre illustratif, les composés des exemples 1, 3, 6 et 9 inhibent l'hyperperméabilité vasculaire induite par le zymosan après administration orale de 1-20 mg/kg.

veines saphènes de lapin = assay: Contraction of isolated rabbit saphenous vein rings produced by KCl (depolarisation); conditions: for augmentent les contractions des veines saphènes de lapin produites par le KCl: KCl 40 mM, compounds 10 nM à 30 mM; for EC50: increase of contractions produced by KCl 40 mM, read-out: DE₅₀
From the text: (§2) Pour l'étude in vitro, les composés sont solubilisés en solution aqueuse pure ou contenant du DMSO ou de l'alcool.
L'effet contractile est mesuré in vitro : • par la force de contraction développée par des anneaux vasculaires quiescents ou stimulés (soit électriquement soit par des agents physiologiques) et maintenus dans des conditions isométriques, • par la pression développée par des réseaux vasculaires perfusés à débit constant.
Les composés de l'invention et leurs sels éventuels augmentent la contraction des veines saphènes animales produite par la noradrénaline et la dépolarisation (solution hyperpotassique) sans affecter, dans la majorité des cas, les réponses contractiles artérielles. A titre illustratif, les composés des exemples 2, 3, 4, 7, et 9 (10 nM à 30 mM) augmentent de plus de 40 % (DE₅₀ ± 0,3 microM) les contractions des veines saphènes de lapin produites par le KCl (40 mM).

pleurésie chez le rat = assay: Carrageenan-induced pleurisy (oedema and leukocyte migration); type: in vivo; conditions: 5 mg/kg i.p. given twice, 6 hours after carrageenan injection into the pleural cavity
From the text: as §1
L'activité antiinflammatoire est démontrée par la mesure de l'inhibition de l'oedème et de la migration leucocytaire après induction d'une pleurésie chez le rat par injection de carragénine dans la cavité pleurale (Almeida et col., J. Pharmacol. Exp. Therap., 1980, 214 : 74).
Le composé des exemples 3 et 4 administrés deux fois en i.p. à la dose de 5 mg/kg inhibent l'oedème et la migration leucocytaire dans la cavité pleurale, 6 heures après injection de carragénine dans le modèle de la pleurésie chez le rat.

[2] = Free radical scavenging with DPPH as stable free radical; type: physicochemical; conditions: DPPH model, in vitro
From the text: as §2
L'effet "piégeur de radicaux libres" global est étudié in vitro par un modèle utilisant le 1,1-diphényl-2-picrylhydrazyl (DPPH) comme radical libre stable, méthode dérivée de celle décrite par Lamaison et col., Plantes Médic. et Phytothérapie, XXII, 1988, 231-234.

| EC50 (veines saphènes de lapin) [µM] | Compound | hyperperméabilité vasculaire induite par le zymosan [1] | augmentent les contractions des veines saphènes de lapin produites par le KCl (veines saphènes de lapin) [%] | migration leucocytaire dans la cavité pleurale (pleurésie chez le rat) | oedème (pleurésie chez le rat) | effet antiradicalaire [2] |
| --- | --- | --- | --- | --- | --- | --- |
|  | O=C(NN=c1c(=O)c2ccccc2c1=O)n1cccc1 [exemple 1, 2.3-Dihydro-1.3-dioxo-2-(pyrrol-1-yl-carbonylhydrazono)-1H-indene] | inhibent |  |  |  |  |
| ~0.3 | O=C(NN=c1c(=O)c2ccccc2c1=O)c1cccnc1 [exemple 2, 2.3-Dihydro-1.3-dioxo-2-[(3-pyridyl)carbonylhydrazono]-1H-indene, chlorhydrate] |  | > 40 |  |  |  |
| ~0.3 | Nc1ccc(C(=O)NN=c2c(=O)c3ccccc3c2=O)cc1 [exemple 3, 2-(4-Aminophenylcarbonylhydrazono)-2.3-dihydro-1.3-dioxo-1H-indene, chlorhydrate] | inhibent | > 40 | inhibent | inhibent |  |
|  | O=C(NN=c1c(=O)c2ccccc2c1=O)c1cccnc1 [exemple 6, 2.3-Dihydro-1.3-dioxo-2-[(3-pyridyl)carbonylhydrazono]-1H-indene, maleate] | inhibent |  |  |  | présentent un effet antiradicalaire |
